Laboratory results published in patent US20160270393A1, “INSECT REPELLENT COMPOSITIONS AND METHODS OF USE” (Wageningen Universiteit, priority 2013, published 2016).
“Also recorded” adds a separate entry of the source. Read-outs that look alike come from different tables or passages of the source.

Experiments:
[1] = test system: Anopheles gambiae s.s. females; assay: Laboratory bioassay of repellent compounds (landings on heated, odour-baited plateau); assay type: in vivo; settings: for effect on number of landings during eight minutes compared to ethanol control: 1% in ethanol on nylon strip, ten females, n=8, Mann-Whitney U, α=0.0042, listed in order of increasing efficacy; for repellent effect on host-seeking mosquitoes: 1% concentration
Procedure: The bioassay was set up in a room in which air temperature and relative humidity (RH) could easily be controlled. During experiments these parameters were continuously monitored using a Tinyview® data logger with display. Temperature was maintained at 24±1° C. and RH was kept between 60 and 75%.
Because repellents are volatile compounds, the risk of contamination of the setup is always present when testing these substances. Therefore, this bioassay uses replaceable 30×30×30 cm Bugdorm® cages as flight chambers. Although made of polyethylene (PE) and polypropylene (PP) which may potentially pick up the compounds tested, no contamination effects were observed, in contrast to a previously used cage made of metal and polycarbonate (see below).
Mosquitoes were attracted to a heated circular plateau (1) of diameter 15 cm acting as a landing surface, that was positioned underneath the gauze bottom of the Bugdorm® (2). Ten moist filter papers (3) of diameter 8 cm were applied on top of the heating plateau. Metal gauze was placed over the papers on which the strips releasing the odour blend were laid (see below). A transparent plastic cylinder was placed around the plateau to concentrate the warm, humid air within the area above the plateau.
A five-compound odour bait, which simulates the smell of a human foot (Mukabana et al., 2012), provided the necessary attractive background against which repellency could be measured. The individual compounds were released from nylon strips (cut from panty hoses: 90% polyamide, 10% spandex, Marie Claire®) (see Okumu et al. (2010b)). Concentrations were optimized for this release method: ammonia (25%), L-(+)-lactic-acid (88-92%), tetradecanoic acid (16% in ethanol), 3-methyl-1-butanol (0.01% in paraffin oil) and butan-1-amine (0.001% in paraffin oil). Strips measuring 26.5 cm×1 cm were impregnated with the attractive compounds by dipping them into an Eppendorf tube containing 1 ml of solution. Subsequently, they were stored at room temperature for three to five hours. Hereafter the strips were hung for half an hour under a fume hood to allow excess fluids to leak off. Finally they were packed in aluminium foil and stored at 4° C. in a refrigerator until use. Pulses of CO2 were released into the Bugdorm® through a teflon tube (4) that rested on top of the Bugdorm®. Each eight seconds, a two second pulse was released at 2.17 mL/sec (or 130 mL/min).
A glass screen (5, 6) was placed between the Bugdorm® and the place from where a researcher would carry out the behavioural observations. In this way, skin and breath emanations from the researcher were prevented from interfering directly with the mosquitoes inside the flight chamber. In the ceiling of the experimental room a fan created a gentle suction to carry off any volatiles emitted by both the experimental operator and the setup.
Repellence was measured by releasing a number of female Anopheles gambiae s.s. mosquitoes into the cage. The mosquitoes were highly attracted to the warm area on the bottom of the Bugdorm® cage and they would land and probe with their proboscis through the gauze in search of a blood-host.
A potential repellent was released from a nylon strip that was prepared identically to the method used for attractive compounds, with the exception that the strips were not hung up under a fume hood but stored in Eppendorf tubes at 4° C. directly after their preparation. The impregnated nylon strips with the repellents were taken out of their solution just before the start of the experiment and allowed to leak out on a piece of filter paper for 10 s before they were placed in the experimental setup. Strips were laid directly on the gauze bottom of the Bugdorm®, in a circle within the circular area under which the attractant blend was released.
After one minute of acclimatization time, the number of landings within the circular area formed by the treated strip was counted for a period of eight minutes. […]

[2] = test system: An. gambiae s.s., Mbita strain; settings: comparison statement; DEET not tested in this setup; cited from earlier work
[3] = test system: An. gambiae s.s., Mbita strain; assay: Semi-field testing in MalariaSphere (push / push-pull, trap catches inside and outside experimental house); assay type: in vivo, Anopheles gambiae s.s.; parameters: Reduction (mosquitoes trapped indoors vs control): concentration or dose not given beside the values; settings: for Indoors Mean (SEM) no. mosquitoes / Indoors Percentage trapped / Reduction (mosquitoes trapped indoors vs control) / Outdoors Mean (SEM) no. mosquitoes / Outdoors Percentage trapped: n=6; for spatial repellent effect: inventors' observation, repellent traps spaced about 4-5 meters apart
Description: Mosquitoes (An. gambiae s.s., Mbita strain; henceforth termed An. gambiae) were reared under ambient atmospheric conditions in screenhouses (larvae) and holding rooms (adults) at the Thomas Odhiambo Campus (TOC) of the International Centre of Insect Physiology and Ecology (ICIPE) located near Mbita Point township in western Kenya. Mosquito eggs were placed in plastic trays containing filtered water from Lake Victoria. All larval instars were fed on Tetramin® baby fish food which was supplied thrice per day. Pupae were collected daily and placed in mesh-covered cages (30×30×30 cm) prior to adult emergence. Adult mosquitoes were fed on 6% glucose solution through wicks made from adsorbent tissue paper.
Four to six day old female mosquitoes that had no prior access to blood were used for the semi-field experiments. The mosquitoes were collected from the colony at 12:00 h each day and stored for eight hours in the colony room with access to water on cotton wool. Within 15 min. before the start of the experiment the cups with the mosquitoes were transported to the MalariaSphere.
The experiments were conducted in Kenya at the Mbita Point Research & Training Centre of the International Centre of Insect Physiology and Ecology (ICIPE). Experiments took place in the MalariaSphere, a screenhouse into which a traditional house was built surrounded by natural vegetation (see Knols et al. (2002)). […] The MalariaSphere was set up as described by Knols et al. (2002) with as only modification that no breeding sites were present.
In the experiment the effects of attractant-baited traps and the dispersal of repellents around the traditional house were tested. Eight different setups were tested. During all tests, one attractant-baited trap (see below) was placed inside the experimental house to represent a human being. The house entry of the mosquitoes was measured by the number of mosquitoes caught by the trap inside the house.
Each night at 20:00 h, 200 female mosquitoes were released into the MalariaSphere. At 06:30 h the next morning the experiment was terminated by closing and switching off all traps. The traps were then placed in a freezer for several minutes to inactivate the mosquitoes, after which the number of trapped mosquitoes was determined.
The study compared the effect of three different repellents; in push-only situations, as well as in situations in which both the repellent and the attractive elements were present. […] Open circles represent a MMX trap baited with attractant. Filled circles represent a MMX trap dispersing the repellent. The asterisk indicates the mosquito release point. The numbers of the treatments correspond to the following:
Each setup was tested during six different nights, thus a total of 48 tests was carried out, during the same number of nights. The order of the tests was not fully randomized in order to minimize the risk of contamination of the MalariaSphere with the odours used.
Besides PMD, catnip essential oil (e.o.) and delta-undecalactone (dUDL) were used as repellents. Strips were impregnated with 40% solutions (catnip e.o. and dUDL were dissolved in paraffin oil) as described below.
Each night 200 mosquitoes were released from one central point between the entrance of the screenhouse and the experimental hut (see FIG. 3).
Mosquito Magnet® X (MM-X) traps (Kline (1999), Njiru et al (2006)) were baited with CO2 and a five-compound odour blend, which simulates the smell of a human foot (Mukabana et al., 2012). The individual compounds of the attractive blend were released from nylon strips (cut from panty hoses: 90% polyamide, 10% spandex, Marie Claire®) (Okumu et al. (2010b)). Concentrations were optimized for this setup and release method: ammonia (2.5% in water), L-(+)-lactic-acid (88-92%), tetradecanoic acid (0.000032% in ethanol), 3-methyl-1-butanol (0.000001% in water) and butan-1-amine (0.001% in paraffin oil) (see Table 1). […]

[4] = background statement; cited from earlier work
[5] = push only, 40% solution on strip, 200 mosquitoes released per night
[6] = push only, 200 released per night

Row | SMILES | effect on number of landings during eight minutes compared to ethanol control [1] | Indoors Mean (SEM) no. mosquitoes [3, 5] | Indoors Percentage trapped [3, 6] [%] | Outdoors Mean (SEM) no. mosquitoes ([3]; push-pull) | Outdoors Percentage trapped ([3]; push-pull) [%] | spatial repellent effect [3] | solubility [4] | repellent effect on host-seeking mosquitoes [1] | further results
1 | CC(=O)CCC=C(C)C [6-methyl-5-hepten-2-one] | significantly reduced the number of landings |  |  |  |  |  |  |  | 
2 | CCN(CC)C(=O)c1cccc(C)c1 [DEET, N,N-diethyl-meta-toluamide] | significantly reduced the number of landings |  |  |  |  |  |  |  | spatial repellent effect [2]: little or no spatial repellent effect; also recorded: no spatial effect on distances from the human skin greater than a few millimeters
3 | CC1CCC(C(C)(C)O)C(O)C1 (stereo not drawn) [PMD, p-Menthane-3,8-diol, reference compound] | significantly reduced the number of landings | 44.5 (5.6) b | 22.3 | 125.0 (13.8) | 62.5 |  |  |  | Reduction (mosquitoes trapped indoors vs control) ([3]; push only): 45.7%; Indoors Mean (SEM) no. mosquitoes ([3]; push-pull (repellent plus attractant-baited traps outside), 200 released per night): 6.8 (1.2) c, d; Indoors Percentage trapped ([3]; push-pull, 200 released per night): 3.4%; Reduction (mosquitoes trapped indoors vs control) ([3]; push-pull): 91.7%
4 | C=CC(C)(O)CCC=C(C)C (stereo not drawn) [linalool] | significantly reduced the number of landings |  |  |  |  |  |  |  | 
5 | CCCCCC1CCCC(=O)O1 (stereo not drawn) [δ-decalactone, 6-pentyloxan-2-one] | significantly reduced the number of landings |  |  |  |  | significant spatial repellent effect; also recorded: significant repellent effect from a distance of at least several decimeters | solubility in alcohols or oils | strong repellent effect | 
6 | CCCCCCC1CCCC(=O)O1 (stereo not drawn) [δ-undecalactone, 6-hexyloxan-2-one] | significantly reduced the number of landings | 15.2 (2.5) c(d) | 7.6 | 122.8 (7.1) | 61.4 | significant spatial repellent effect; also recorded: significant repellent effect from a distance of at least several decimeters | solubility in alcohol | strong repellent effect | Reduction (mosquitoes trapped indoors vs control) ([3]; push only, listed as dUDL): 81.5%; Reduction (mosquitoes trapped indoors vs control) ([3]; push only, listed as delta-undecalactone): 81.5%; Indoors Mean (SEM) no. mosquitoes ([3]; push-pull (repellent plus attractant-baited traps outside), 200 released per night, listed as dUDL): 3.7 (0.7) d; Indoors Mean (SEM) no. mosquitoes ([3]; push-pull (repellent plus attractant-baited traps outside), 200 released per night, listed as delta-undecalactone): 3.7 (0.7); Indoors Percentage trapped ([3]; push-pull, 200 released per night, listed as dUDL): 1.9%; Indoors Percentage trapped ([3]; push-pull, 200 released per night, listed as delta-undecalactone): 1.9%; Reduction (mosquitoes trapped indoors vs control) ([3]; push-pull, listed as dUDL): 95.5%; Reduction (mosquitoes trapped indoors vs control) ([3]; push-pull, listed as delta-undecalactone): 95.5%
